What was measured:
BRAF V600E = target: T1, BRAF V600E (Homo sapiens, UniProt P15056, V600E); experiment: Cellular assay of target protein degradation, T-Rex 293 cells stably transfected with HA-BRAF_V600E (HA immunofluorescence, high content imaging); assay type: cell-based; conditions: T-Rex 293 HA-BRAF V600E; for DC50: half maximal degradation, read-out: BRaf V600E DC50; for Dmax: maximum degradation observed
T1 construct: expressed in transfected cells
Summary of the method: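 24 h compound exposure, 1 μM–0.1 nM final, 0.1% DMSO, 37 °C; cells induced with 1 ng/mL doxycycline. PFA fix, Triton permeabilize, anti-HA overnight 4 °C, Hoechst/phalloidin counterstain. Output: DC50, Dmax as % control.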

BRAF G466V = target: T2, BRAF G466V (Homo sapiens, UniProt P15056, G466V); experiment: Cellular assay of target protein degradation, T-Rex 293 cells stably transfected with HA-BRAF G466V (HA immunofluorescence, high content imaging); assay type: cell-based; conditions: T-Rex 293 HA-BRAF G466V; for DC50: half maximal degradation, read-out: BRaf G466V DC50; for Dmax: maximum degradation observed
T2 construct: expressed in transfected cells
Summary of the method: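 24 h compound, 30 nM–3 pM final, 0.1% DMSO, 37° C; HA-BRAF G466V induced with 0.75 ng/mL doxycycline. PFA fix, Triton perm, anti-HA + Alexa fluor secondary, Hoechst/phalloidin counterstain; imaging. DC50, Dmax (% of control).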

T2 sequence (P15056 whole entry G466V): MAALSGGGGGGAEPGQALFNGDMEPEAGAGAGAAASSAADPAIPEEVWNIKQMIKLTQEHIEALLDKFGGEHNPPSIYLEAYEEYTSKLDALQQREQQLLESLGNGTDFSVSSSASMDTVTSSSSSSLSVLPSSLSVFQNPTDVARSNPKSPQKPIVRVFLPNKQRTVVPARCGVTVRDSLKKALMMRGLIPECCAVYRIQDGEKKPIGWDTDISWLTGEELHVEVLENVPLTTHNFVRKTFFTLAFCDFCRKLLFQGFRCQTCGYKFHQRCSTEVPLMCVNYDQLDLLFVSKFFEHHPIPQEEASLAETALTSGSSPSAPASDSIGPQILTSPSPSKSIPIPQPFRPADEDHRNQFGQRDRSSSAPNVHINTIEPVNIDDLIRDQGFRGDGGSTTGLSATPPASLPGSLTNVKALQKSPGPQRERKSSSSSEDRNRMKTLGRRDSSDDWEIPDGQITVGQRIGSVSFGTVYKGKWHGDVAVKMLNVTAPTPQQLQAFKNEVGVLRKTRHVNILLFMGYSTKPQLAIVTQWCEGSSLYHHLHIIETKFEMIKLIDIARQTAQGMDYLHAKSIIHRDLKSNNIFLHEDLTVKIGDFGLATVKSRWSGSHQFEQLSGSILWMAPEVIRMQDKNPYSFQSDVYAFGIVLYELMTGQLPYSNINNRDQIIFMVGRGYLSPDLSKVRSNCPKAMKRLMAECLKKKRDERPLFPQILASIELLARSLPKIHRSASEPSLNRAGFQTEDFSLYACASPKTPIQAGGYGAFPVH
T1 sequence (P15056 whole entry V600E): as the sequence (P15056 whole entry G466V) above, with V466G, V600E counted along it

SMILES	DC50 (BRAF V600E)	Dmax (BRAF V600E)	DC50 (BRAF G466V)	Dmax (BRAF G466V)
O=C1CCC(N2Cc3cc(C4CCN(CC5CCN(c6ccc(-c7cnc8[nH]cc(C(=O)c9c(F)ccc(NS(=O)(=O)N%10CC[C@@H](F)C%10)c9F)c8c7)cc6)CC5)CC4)c(F)cc3C2=O)C(=O)N1 (stereo partly drawn) [Compound 157, (3R)-N-[3-(5-{4-[4-({4-[2-(2,6-dioxopiperidin-3-yl)-6-fluoro-1-oxo-2,3-dihydro-1H-isoindol-5-yl]piperidin-1-yl}methyl)piperidin-1-yl]phenyl}-1H-pyrrolo[2,3-b]pyridine-3-carbonyl)-2,4-difluorophenyl]-3-fluoropyrrolidine-1-sulfonamide]	5 to 50 nM	35 to 70%	1 to 10 nM	> 70%
CN(CCN1CCN(c2ccc(-c3cnc4[nH]cc(C(=O)c5c(F)ccc(NS(=O)(=O)N6CC[C@@H](F)C6)c5F)c4c3)cc2)CC1)[C@H]1C[C@@H](Oc2ccc3c(c2)CN(C2CCC(=O)NC2=O)C3=O)C1 (stereo partly drawn) [Compound 126, (3R)-N-[2,4-difluoro-3-(5-{4-[4-(2-{methyl[(1s,3s)-3-{[2-(2,6-dioxopiperidin-3-yl)-1-oxo-2,3-dihydro-1H-isoindol-5-yl]oxy}cyclobutyl]amino}ethyl)piperazin-1-yl]phenyl}-1H-pyrrolo[2,3-b]pyridine-3-carbonyl)phenyl]-3-fluoropyrrolidine-1-sulfonamide]	5 to 50 nM	35 to 70%	1 to 10 nM	35 to 70%
O=C1CC[C@@H](NC(=O)N2CCCc3c(N4CCC(CN5CCN(c6ccc(-c7cnc8[nH]cc(C(=O)c9c(F)ccc(NS(=O)(=O)N%10CC[C@@H](F)C%10)c9F)c8c7)cc6)CC5)CC4)ccnc32)C(=O)N1 [Compound 372, 5-(4-{[4-(4-{3-[2,6-difluoro-3-({[(3R)-3-fluoropyrrolidin-1-yl]sulfonyl}amino)benzoyl]-1H-pyrrolo[2,3-b]pyridin-5-yl}phenyl)piperazin-1-yl]methyl}piperidin-1-yl)-N-[(3R)-2,6-dioxopiperidin-3-yl]-1,2,3,4-tetrahydro-1,8-naphthyridine-1-carboxamide]	> 500 nM		> 30 nM	
O=C1CCC(N2Cc3cc(CCCCN4CCN(c5ccc(-c6cnc7[nH]cc(C(=O)c8c(F)ccc(NS(=O)(=O)N9CC[C@@H](F)C9)c8F)c7c6)cc5)CC4)ccc3C2=O)C(=O)N1 (stereo partly drawn) [Compound 325, (3R)-N-(3-{5-[4-(4-{4-[2-(2,6-dioxopiperidin-3-yl)-1-oxo-2,3-dihydro-1H-isoindol-5-yl]butyl}piperazin-1-yl)phenyl]-1H-pyrrolo[2,3-b]pyridine-3-carbonyl}-2,4-difluorophenyl)-3-fluoropyrrolidine-1-sulfonamide]	5 to 50 nM	35 to 70%	1 to 10 nM	> 70%
O=C1CCC(NC(=O)c2ccc(N3CCN(CCN4CCN(c5ccc(-c6cnc7[nH]cc(C(=O)c8c(F)ccc(NS(=O)(=O)N9CC[C@@H](F)C9)c8F)c7c6)cc5)CC4)CC3)cc2F)C(=O)N1 (stereo partly drawn) [Compound 378, 4-(4-{2-[4-(4-{3-[2,6-difluoro-3-({[(3R)-3-fluoropyrrolidin-1-yl]sulfonyl}amino)benzoyl]-1H-pyrrolo[2,3-b]pyridin-5-yl}phenyl)piperazin-1-yl]ethyl}piperazin-1-yl)-N-(2,6-dioxopiperidin-3-yl)-2-fluorobenzamide]	5 to 50 nM	< 35%	< 1 nM	< 35%
O=C1CCC(N2Cc3cc(N4CC(CN5CCN(C6(c7ncc(-c8cnc9[nH]cc(C(=O)c%10c(F)ccc(NS(=O)(=O)N%11CC[C@@H](F)C%11)c%10F)c9c8)cn7)CC6)CC5)C4)ccc3C2=O)C(=O)N1 (stereo partly drawn) [Compound 320, (3R)-N-{3-[5-(2-{1-[4-({1-[2-(2,6-dioxopiperidin-3-yl)-1-oxo-2,3-dihydro-1H-isoindol-5-yl]azetidin-3-yl}methyl)piperazin-1-yl]cyclopropyl}pyrimidin-5-yl)-1H-pyrrolo[2,3-b]pyridine-3-carbonyl]-2,4-difluorophenyl}-3-fluoropyrrolidine-1-sulfonamide]	50 to 500 nM	35 to 70%	1 to 10 nM	35 to 70%
O=C1CCC(N2Cc3cc(N4CCC(CN5CCC(C6(c7ccc(-c8cnc9[nH]cc(C(=O)c%10c(F)ccc(NS(=O)(=O)N%11CC[C@@H](F)C%11)c%10F)c9c8)cc7)CC6)CC5)CC4)ccc3C2=O)C(=O)N1 (stereo partly drawn) [Compound 174, (3R)-N-{3-[5-(4-{1-[1-({1-[2-(2,6-dioxopiperidin-3-yl)-1-oxo-2,3-dihydro-1H-isoindol-5-yl]piperidin-4-yl}methyl)piperidin-4-yl]cyclopropyl}phenyl)-1H-pyrrolo[2,3-b]pyridine-3-carbonyl]-2,4-difluorophenyl}-3-fluoropyrrolidine-1-sulfonamide]	5 to 50 nM	< 35%	1 to 10 nM	> 70%
O=C1CC[C@H](N2Cc3cc(C4CN(CC5CC6(C5)CN(c5ccc(-c7cnc8[nH]cc(C(=O)c9c(F)ccc(NS(=O)(=O)N%10CC[C@@H](F)C%10)c9F)c8c7)cc5)C6)C4)ccc3C2=O)C(=O)N1 [Compound 99, (3R)-N-{3-[5-(4-{6-[(3-{2-[(3S)-2,6-dioxopiperidin-3-yl]-1-oxo-2,3-dihydro-1H-isoindol-5-yl}azetidin-1-yl)methyl]-2-azaspiro[3.3]heptan-2-yl}phenyl)-1H-pyrrolo[2,3-b]pyridine-3-carbonyl]-2,4-difluorophenyl}-3-fluoropyrrolidine-1-sulfonamide]	5 to 50 nM	35 to 70%	1 to 10 nM	> 70%
O=C1CCC(N2Cc3cc(N4CC5(CN(CCOc6ccc(-c7cnc8[nH]cc(C(=O)c9c(F)ccc(NS(=O)(=O)N%10CC[C@@H](F)C%10)c9F)c8c7)cc6)C5)C4)ccc3C2=O)C(=O)N1 (stereo partly drawn) [Compound 50, (3R)-N-(3-{5-[4-(2-{6-[2-(2,6-dioxopiperidin-3-yl)-1-oxo-2,3-dihydro-1H-isoindol-5-yl]-2,6-diazaspiro[3.3]heptan-2-yl}ethoxy)phenyl]-1H-pyrrolo[2,3-b]pyridine-3-carbonyl}-2,4-difluorophenyl)-3-fluoropyrrolidine-1-sulfonamide]	5 to 50 nM	35 to 70%	< 1 nM	> 70%
CNc1cc(-c2cnc3[nH]cc(C(=O)c4c(F)ccc(NS(=O)(=O)N5CC[C@@H](F)C5)c4F)c3c2)ccc1N1CCC(CN2CCC(c3ccc4c(c3)CN(C3CCC(=O)NC3=O)C4=O)CC2)CC1 (stereo partly drawn) [Compound 257, (3R)-N-[3-(5-{4-[4-({4-[2-(2,6-dioxopiperidin-3-yl)-1-oxo-2,3-dihydro-1H-isoindol-5-yl]piperidin-1-yl}methyl)piperidin-1-yl]-3-(methylamino)phenyl}-1H-pyrrolo[2,3-b]pyridine-3-carbonyl)-2,4-difluorophenyl]-3-fluoropyrrolidine-1-sulfonamide]	5 to 50 nM	35 to 70%	1 to 10 nM	> 70%
O=C1CCC(N2Cc3cc(N4CCC(CN5CCN(Cc6ncc(-c7cnc8[nH]cc(C(=O)c9c(F)ccc(NS(=O)(=O)N%10CC[C@@H](F)C%10)c9F)c8c7)cn6)CC5)CC4)ccc3C2=O)C(=O)N1 (stereo partly drawn) [Compound 153, (3R)-N-{3-[5-(2-{[4-({1-[2-(2,6-dioxopiperidin-3-yl)-1-oxo-2,3-dihydro-1H-isoindol-5-yl]piperidin-4-yl}methyl)piperazin-1-yl]methyl}pyrimidin-5-yl)-1H-pyrrolo[2,3-b]pyridine-3-carbonyl]-2,4-difluorophenyl}-3-fluoropyrrolidine-1-sulfonamide]	50 to 500 nM	> 70%	1 to 10 nM	> 70%
O=C1CCC(N2Cc3cc(N4CC(CN5CCN(C6(c7ccc(-c8cnc9[nH]cc(C(=O)c%10c(F)ccc(NS(=O)(=O)N%11CC[C@@H](F)C%11)c%10F)c9c8)cc7)CC6)CC5)C4)ccc3C2=O)C(=O)N1 (stereo partly drawn) [Compound 200, (3R)-N-{3-[5-(4-{1-[4-({1-[2-(2,6-dioxopiperidin-3-yl)-1-oxo-2,3-dihydro-1H-isoindol-5-yl]azetidin-3-yl}methyl)piperazin-1-yl]cyclopropyl}phenyl)-1H-pyrrolo[2,3-b]pyridine-3-carbonyl]-2,4-difluorophenyl}-3-fluoropyrrolidine-1-sulfonamide]	50 to 500 nM	35 to 70%	1 to 10 nM	35 to 70%
O=C1CC[C@H](N2Cc3cc(C4CCN(CC5CCN(c6ccc(-c7cnc8[nH]cc(C(=O)c9c(F)ccc(NS(=O)(=O)N%10CCCC%10)c9F)c8c7)cc6)CC5)CC4)ccc3C2=O)C(=O)N1 [Compound 230, N-{3-[5-(4-{4-[(4-{2-[(3S)-2,6-dioxopiperidin-3-yl]-1-oxo-2,3-dihydro-1H-isoindol-5-yl}piperidin-1-yl)methyl]piperidin-1-yl}phenyl)-1H-pyrrolo[2,3-b]pyridine-3-carbonyl]-2,4-difluorophenyl}pyrrolidine-1-sulfonamide]	5 to 50 nM	35 to 70%	< 1 nM	> 70%
O=C1CC[C@H](N2Cc3cc(CCCCN4CC5(C4)CN(c4ccc(-c6cnc7[nH]cc(C(=O)c8c(F)ccc(NS(=O)(=O)N9CC[C@@H](F)C9)c8F)c7c6)cc4)C5)ccc3C2=O)C(=O)N1 [Compound 62, (3R)-N-[3-(5-{4-[6-(4-{2-[(3S)-2,6-dioxopiperidin-3-yl]-1-oxo-2,3-dihydro-1H-isoindol-5-yl}butyl)-2,6-diazaspiro[3.3]heptan-2-yl]phenyl}-1H-pyrrolo[2,3-b]pyridine-3-carbonyl)-2,4-difluorophenyl]-3-fluoropyrrolidine-1-sulfonamide]	< 5 nM	35 to 70%	< 1 nM	35 to 70%
